Where “and” joins values, the source holds several entries; their conditions need not be identical. Identical values can stand only once. Each block holds one compound with its values, some of them ahead of it. Calls of active or inactive are those of the source.
Key:
[1] = target: T1, Mannose-6-phosphate isomerase (Homo sapiens, UniProt P34949); experiment: phosphomannose isomerase inhibition – biochemical, fluorescence intensity, confirmation (AID 1535)
T1 sequence (P34949 whole entry): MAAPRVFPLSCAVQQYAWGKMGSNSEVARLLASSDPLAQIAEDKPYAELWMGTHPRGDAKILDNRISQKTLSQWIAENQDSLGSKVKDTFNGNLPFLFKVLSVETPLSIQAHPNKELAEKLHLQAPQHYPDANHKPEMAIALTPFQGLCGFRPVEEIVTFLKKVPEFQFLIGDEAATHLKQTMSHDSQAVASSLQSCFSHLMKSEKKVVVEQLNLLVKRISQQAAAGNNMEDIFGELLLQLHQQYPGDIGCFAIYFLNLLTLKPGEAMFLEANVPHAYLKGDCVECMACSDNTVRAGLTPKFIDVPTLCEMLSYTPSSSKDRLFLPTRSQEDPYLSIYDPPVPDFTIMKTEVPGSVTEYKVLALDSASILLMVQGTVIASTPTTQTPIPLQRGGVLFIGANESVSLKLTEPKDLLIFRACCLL

Phosphomannomutase 2 = Phosphomannomutase 2 (Homo sapiens, UniProt O15305); experiment: Counter screen SAR assay for PMM2 inhibitors via a fluorescence intensity assay. [Related pubchem assays (depositor defined):AID1545, AID1574]
[2] = target: Voltage-dependent T-type calcium channel subunit alpha-1H (Homo sapiens, UniProt O95180); experiment: inhibition of CACNA1H calcium flux – cell-based, SynthLib3 library, HEK293 Cav3.2, fluorescence (AID 493041); type: functional
[3] = target: T2, Delta-type opioid receptor (Homo sapiens, UniProt P41143); experiment: HTS Image-Based Screen for Antagonists of the DOR Receptor. [Related pubchem assays (depositor defined):AID1777, AID1785, AID1786, AID2133]; type: functional
Mu-type opioid receptor [4] = target: T3, Mu-type opioid receptor (Homo sapiens, UniProt P35372); experiment: HTS Image-Based Screen for Agonists of the MOR Receptor. [Related pubchem assays (depositor defined):AID1777, AID1785, AID1786, AID2133]; type: functional
[5] = target: T2, Delta-type opioid receptor; experiment: HTS Image-Based Screen for Agonists of the DOR Receptor. [Related pubchem assays (depositor defined):AID1777, AID1786, AID2133]; type: functional
[6] = target: T4, Kappa-type opioid receptor (Homo sapiens, UniProt P41145); type: functional
[7] = target: T4, Kappa-type opioid receptor; type: functional; remark: listed apart in the source
[8] = target: T4, Kappa-type opioid receptor; experiment: SAR analysis of small molecule agonists of the kappa opioid receptor via a luminescent beta-arrestin assay. [Related pubchem assays (depositor defined):AID1777, AID1786, AID1966, AID2133, AID2136, AID2348, AID2352, AID2357, AID2359, AID2370, AID2420, AID2478, AID2491, AID2492, AID2493, AID2497, AID2498, AID2500, AID449737, AID488822, AID488842]; type: functional
Mu-type opioid receptor [9] = target: T3, Mu-type opioid receptor; experiment: mu opioid receptor activators, image-based, SAR follow-up (AID 2352); type: functional
[10] = target: T2, Delta-type opioid receptor; experiment: DOR agonists, SAR follow-up, image-based (AID 2370); type: functional
[11] = target: T4, Kappa-type opioid receptor; experiment: kappa opioid receptor blockers, image-based, SAR follow-up (AID 2348); type: functional
Mu-type opioid receptor [12] = target: T3, Mu-type opioid receptor; experiment: mu opioid receptor blockers – image-based, SAR follow-up (AID 2420); type: functional;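 note: compounds added before stimulation of receptor with agonist DAMGO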
[13] = target: T4, Kappa-type opioid receptor; experiment: kappa opioid receptor activation potency – imaging, image-based, SAR follow-up (AID 2359); type: functional
[14] = target: T2, Delta-type opioid receptor; experiment: delta opioid receptor blockers – image-based, SAR follow-up (AID 2357); type: functional
[15] = target: G-protein coupled receptor 35 (Homo sapiens, UniProt Q9HC97); experiment: inhibition of zaprinast-stimulated GPR35 beta-arrestin translocation – imaging, U2OS, beta-arrestin-GFP, zaprinast agonist, primary screen (AID 2058); type: functional;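 note: antagonist potency meaning inhibition of agonist-induced arrestin redistribution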
[16] = Trypanosoma cruzi growth suppression in host cells – NIH3T3 host cells, beta-gal luminescence, confirmation (AID 2044); type: functional, cell-based;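 note: intracellular parasites grown in NIH/3T3 mouse fibroblasts as host cells; luminescent beta-galactosidase reporter signal from transgenic T. cruzi replicating inside host cells; inhibitors lower the luminescence signal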
[17] = NIH3T3 cell viability loss – ATP luminescence, mouse fibroblasts, counter-screen, dose response (AID 2010); type: functional, cell-based;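 note: cells exposed to compound for about 90 hours before reading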
[18] = target: DNA dC->dU-editing enzyme APOBEC-3A (Homo sapiens, UniProt P31941); experiment: Dose Response confirmation of small molecule APOBEC3A DNA Deaminase Inhibitors via a fluorescence-based single-stranded DNA deaminase assay. [Related pubchem assays (depositor defined):AID493011, AID493024]; type: functional
Troponin, cardiac muscle = Troponin, cardiac muscle (Homo sapiens, UniProt P19429+P45379+P63316); experiment: Fluorescence-based biochemical high throughput dose response assay for activators of the calcium sensitivity of cardiac Regulated Thin Filaments (RTF). [Related pubchem assays (depositor defined):AID493008, AID493018, AID504382, AID504383]; type: protein-complex assay
[19] = target: DNA dC->dU-editing enzyme APOBEC-3G (Homo sapiens, UniProt Q9HC16); type: functional;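 note: Dose-response counterscreen measuring inhibition of APOBEC3G DNA deaminase activity, run while confirming APOBEC3A inhibitors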
[20] = target: G-protein coupled receptor 55 (Homo sapiens, UniProt Q9Y2T6); experiment: blockers of GPR55 signalling, imaged – imaging, image-based, counter-screen for GPR35 antagonist project, SAR follow-up (AID 2397); type: functional
INS1 = experiment: INS-1E survival protection against cytokine death – cell-based, luminescence, retest, dose response (AID 449756); type: functional; conditions: Rattus norvegicus;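 note: cell death triggered by IL-1 beta plus TNF-alpha plus IFN-gamma mixture; protective hits raise ATP signal compared with cytokine alone wells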

T3 sequence (P35372 whole entry): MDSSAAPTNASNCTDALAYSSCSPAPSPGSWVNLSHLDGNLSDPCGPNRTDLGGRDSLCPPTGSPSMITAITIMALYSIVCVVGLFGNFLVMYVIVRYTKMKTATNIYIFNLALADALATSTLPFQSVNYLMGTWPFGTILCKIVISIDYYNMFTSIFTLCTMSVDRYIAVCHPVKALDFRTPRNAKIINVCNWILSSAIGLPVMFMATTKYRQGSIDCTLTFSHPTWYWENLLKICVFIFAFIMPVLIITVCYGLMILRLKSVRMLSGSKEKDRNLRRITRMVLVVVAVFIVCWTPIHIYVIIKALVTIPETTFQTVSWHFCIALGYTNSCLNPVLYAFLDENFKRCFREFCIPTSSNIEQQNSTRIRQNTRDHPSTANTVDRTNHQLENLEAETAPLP
T4 sequence (P41145 whole entry): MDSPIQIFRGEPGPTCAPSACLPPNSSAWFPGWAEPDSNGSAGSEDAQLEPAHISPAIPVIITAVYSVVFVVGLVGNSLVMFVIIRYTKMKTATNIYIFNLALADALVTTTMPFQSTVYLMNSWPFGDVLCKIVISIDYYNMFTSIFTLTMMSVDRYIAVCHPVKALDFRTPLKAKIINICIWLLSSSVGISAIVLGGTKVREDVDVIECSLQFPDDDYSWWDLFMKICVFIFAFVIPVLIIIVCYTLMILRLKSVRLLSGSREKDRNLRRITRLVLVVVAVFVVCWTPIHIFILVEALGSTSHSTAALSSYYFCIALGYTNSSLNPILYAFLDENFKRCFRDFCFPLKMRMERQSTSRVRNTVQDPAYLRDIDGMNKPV
T2 sequence (P41143 whole entry): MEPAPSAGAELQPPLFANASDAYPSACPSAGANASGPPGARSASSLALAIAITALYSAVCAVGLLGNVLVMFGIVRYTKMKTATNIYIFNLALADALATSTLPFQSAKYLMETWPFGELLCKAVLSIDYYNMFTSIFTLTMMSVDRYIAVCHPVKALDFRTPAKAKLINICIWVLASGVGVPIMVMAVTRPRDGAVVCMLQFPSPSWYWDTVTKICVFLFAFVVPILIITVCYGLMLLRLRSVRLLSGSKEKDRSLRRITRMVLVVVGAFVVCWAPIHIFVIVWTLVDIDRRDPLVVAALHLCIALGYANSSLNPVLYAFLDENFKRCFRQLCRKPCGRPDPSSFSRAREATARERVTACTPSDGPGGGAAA
Chain of DNA dC->dU-editing enzyme APOBEC-3A (P31941 whole entry): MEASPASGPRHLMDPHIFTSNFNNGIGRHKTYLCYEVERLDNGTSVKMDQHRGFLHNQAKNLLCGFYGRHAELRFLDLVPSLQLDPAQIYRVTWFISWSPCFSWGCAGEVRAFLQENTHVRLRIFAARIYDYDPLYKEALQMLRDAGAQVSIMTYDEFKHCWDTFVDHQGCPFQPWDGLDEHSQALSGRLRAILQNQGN
Chain of G-protein coupled receptor 55 (Q9Y2T6 whole entry): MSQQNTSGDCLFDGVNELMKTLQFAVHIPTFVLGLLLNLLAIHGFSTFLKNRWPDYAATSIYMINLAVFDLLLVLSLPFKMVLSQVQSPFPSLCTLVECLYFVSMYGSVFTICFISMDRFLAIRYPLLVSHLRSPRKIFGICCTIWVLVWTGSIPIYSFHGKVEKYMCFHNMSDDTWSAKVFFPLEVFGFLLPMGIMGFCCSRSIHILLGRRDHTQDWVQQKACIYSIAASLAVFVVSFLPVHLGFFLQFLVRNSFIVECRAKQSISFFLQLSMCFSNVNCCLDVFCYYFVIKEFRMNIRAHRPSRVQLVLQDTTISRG
Chain of Voltage-dependent T-type calcium channel subunit alpha-1H (O95180 whole entry): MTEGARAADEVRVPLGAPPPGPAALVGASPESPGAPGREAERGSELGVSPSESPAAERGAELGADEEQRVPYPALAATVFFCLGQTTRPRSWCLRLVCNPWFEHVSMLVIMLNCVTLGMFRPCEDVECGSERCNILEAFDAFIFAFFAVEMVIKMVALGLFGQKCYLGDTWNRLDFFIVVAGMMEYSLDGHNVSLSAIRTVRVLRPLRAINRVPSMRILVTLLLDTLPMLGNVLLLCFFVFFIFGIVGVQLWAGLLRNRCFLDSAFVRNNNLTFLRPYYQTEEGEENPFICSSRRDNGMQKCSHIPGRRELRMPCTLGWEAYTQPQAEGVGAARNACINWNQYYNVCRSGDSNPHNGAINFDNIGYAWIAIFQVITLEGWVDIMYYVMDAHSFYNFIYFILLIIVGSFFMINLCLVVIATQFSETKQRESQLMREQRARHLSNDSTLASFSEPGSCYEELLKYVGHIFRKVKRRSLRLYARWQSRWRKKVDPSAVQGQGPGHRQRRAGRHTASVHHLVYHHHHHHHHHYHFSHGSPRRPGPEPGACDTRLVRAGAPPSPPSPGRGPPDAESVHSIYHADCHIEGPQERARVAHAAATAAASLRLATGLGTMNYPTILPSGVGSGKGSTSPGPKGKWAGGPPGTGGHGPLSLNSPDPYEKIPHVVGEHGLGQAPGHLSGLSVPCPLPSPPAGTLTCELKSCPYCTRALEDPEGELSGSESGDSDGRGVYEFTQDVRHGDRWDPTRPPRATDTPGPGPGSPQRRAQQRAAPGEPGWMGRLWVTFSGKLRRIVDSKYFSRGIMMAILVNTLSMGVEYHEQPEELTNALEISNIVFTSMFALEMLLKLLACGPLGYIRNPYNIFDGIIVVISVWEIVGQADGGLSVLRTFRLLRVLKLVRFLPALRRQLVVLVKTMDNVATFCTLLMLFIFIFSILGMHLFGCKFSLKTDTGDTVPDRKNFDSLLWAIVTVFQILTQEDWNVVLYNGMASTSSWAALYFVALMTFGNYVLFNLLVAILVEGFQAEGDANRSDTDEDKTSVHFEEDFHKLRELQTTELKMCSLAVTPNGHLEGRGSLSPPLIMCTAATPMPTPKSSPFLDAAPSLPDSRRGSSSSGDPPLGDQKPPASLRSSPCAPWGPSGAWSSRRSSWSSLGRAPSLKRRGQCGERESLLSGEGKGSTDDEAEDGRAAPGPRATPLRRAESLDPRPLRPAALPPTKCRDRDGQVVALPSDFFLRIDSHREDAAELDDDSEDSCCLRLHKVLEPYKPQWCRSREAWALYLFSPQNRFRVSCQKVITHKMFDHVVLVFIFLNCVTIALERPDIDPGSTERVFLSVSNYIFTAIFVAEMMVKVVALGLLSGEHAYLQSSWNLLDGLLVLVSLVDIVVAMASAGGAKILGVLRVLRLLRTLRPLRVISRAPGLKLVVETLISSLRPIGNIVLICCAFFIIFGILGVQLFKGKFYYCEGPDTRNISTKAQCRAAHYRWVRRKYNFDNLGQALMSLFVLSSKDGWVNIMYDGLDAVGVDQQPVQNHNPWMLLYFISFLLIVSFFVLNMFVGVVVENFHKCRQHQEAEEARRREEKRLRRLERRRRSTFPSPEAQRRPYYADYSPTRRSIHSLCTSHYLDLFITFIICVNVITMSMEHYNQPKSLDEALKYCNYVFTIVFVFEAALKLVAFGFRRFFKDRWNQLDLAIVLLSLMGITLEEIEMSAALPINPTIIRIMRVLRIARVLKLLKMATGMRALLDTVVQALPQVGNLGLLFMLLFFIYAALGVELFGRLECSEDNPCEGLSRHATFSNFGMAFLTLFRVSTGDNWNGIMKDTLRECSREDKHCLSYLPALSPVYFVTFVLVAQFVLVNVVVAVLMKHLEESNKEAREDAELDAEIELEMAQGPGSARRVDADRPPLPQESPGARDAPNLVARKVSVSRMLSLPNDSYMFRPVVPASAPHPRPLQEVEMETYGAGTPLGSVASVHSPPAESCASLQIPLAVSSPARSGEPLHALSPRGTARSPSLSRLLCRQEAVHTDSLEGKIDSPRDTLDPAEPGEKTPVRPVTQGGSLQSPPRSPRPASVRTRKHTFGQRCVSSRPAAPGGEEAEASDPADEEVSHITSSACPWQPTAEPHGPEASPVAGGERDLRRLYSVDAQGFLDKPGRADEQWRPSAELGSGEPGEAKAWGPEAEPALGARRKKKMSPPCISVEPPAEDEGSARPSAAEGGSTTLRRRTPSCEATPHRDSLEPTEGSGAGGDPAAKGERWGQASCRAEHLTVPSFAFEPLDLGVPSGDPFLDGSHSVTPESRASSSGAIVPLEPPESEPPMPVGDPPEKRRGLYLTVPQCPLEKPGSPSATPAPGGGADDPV
Chain of DNA dC->dU-editing enzyme APOBEC-3G (Q9HC16 whole entry): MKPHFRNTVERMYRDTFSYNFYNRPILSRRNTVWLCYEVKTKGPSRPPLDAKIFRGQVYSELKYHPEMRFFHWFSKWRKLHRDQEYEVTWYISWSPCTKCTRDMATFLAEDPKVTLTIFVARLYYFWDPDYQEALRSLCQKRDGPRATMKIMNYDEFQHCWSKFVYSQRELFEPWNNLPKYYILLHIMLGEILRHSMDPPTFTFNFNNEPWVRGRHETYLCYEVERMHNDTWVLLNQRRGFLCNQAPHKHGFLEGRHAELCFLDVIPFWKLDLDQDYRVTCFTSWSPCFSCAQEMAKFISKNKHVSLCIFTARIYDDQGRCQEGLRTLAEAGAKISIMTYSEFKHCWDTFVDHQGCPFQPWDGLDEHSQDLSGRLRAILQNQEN
Chain of G-protein coupled receptor 35 (Q9HC97 whole entry): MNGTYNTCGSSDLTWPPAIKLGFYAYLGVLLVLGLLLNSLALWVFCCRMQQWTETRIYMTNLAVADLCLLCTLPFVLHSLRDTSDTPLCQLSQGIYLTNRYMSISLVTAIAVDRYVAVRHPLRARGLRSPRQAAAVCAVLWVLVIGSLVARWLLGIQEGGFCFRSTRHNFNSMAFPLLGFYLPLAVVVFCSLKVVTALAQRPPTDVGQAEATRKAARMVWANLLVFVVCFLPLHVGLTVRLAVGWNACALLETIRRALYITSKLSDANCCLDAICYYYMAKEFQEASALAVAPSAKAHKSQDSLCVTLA
Chain of Phosphomannomutase 2 (O15305 whole entry): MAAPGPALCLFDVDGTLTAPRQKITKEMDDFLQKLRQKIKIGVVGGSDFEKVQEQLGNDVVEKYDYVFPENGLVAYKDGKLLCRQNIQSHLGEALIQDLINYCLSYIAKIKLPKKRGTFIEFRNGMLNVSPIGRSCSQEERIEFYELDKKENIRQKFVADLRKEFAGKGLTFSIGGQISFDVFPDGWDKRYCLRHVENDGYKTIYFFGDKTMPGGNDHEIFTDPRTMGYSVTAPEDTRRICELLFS

IC50 [1]: 3.1 µM (active) and 2.3 µM (active)
IC50 (Phosphomannomutase 2): > 100 µM (inactive)
Compound: Clc1nss/c1=N\c1nncs1

EC50 [2]: 3 µM (active)
Compound: O=C(NCC1[C@H]2CN(CC3CCCC3)C[C@@H]12)c1cc(Cl)cc(Cl)c1 (stereo partly drawn)

IC50 [3]: > 32 µM (inactive)
EC50 (Mu-type opioid receptor [4]): > 32 µM (inactive)
EC50 [5]: > 32 µM (inactive)
EC50 [6]: 1.86 µM
EC50 [7]: 2.13 µM
EC50 [8]: 2.07 µM (active)
EC50 (Mu-type opioid receptor [9]): > 32 µM (inactive)
EC50 [10]: > 32 µM (inactive)
IC50 [11]: > 32 µM (inactive)
IC50 (Mu-type opioid receptor [12]): > 32 µM (inactive)
EC50 [13]: 0.806 µM (active)
IC50 [14]: > 32 µM (inactive)
Compound: CCC(C)(C(=O)NC1CCCC1)N(Cc1cccs1)C(=O)c1ccccn1 (stereo not drawn)

Compound: C=CCn1c(C)c(/C=C/c2cc[n+](C)cc2)c2ccccc21
IC50 [15]: 1.97 µM (active)
EC50 [16]: 0.69 µM (active)
EC50 [17]: > 60 µM (not active)
IC50 [18]: > 100 µM (inactive)
EC50 (Troponin, cardiac muscle): 1.88 µM (active)
IC50 [19]: 16.3 µM (active)
IC50 [20]: 2.79 µM (active)
AC50 (INS1): 6.54 µM (active)
